{
  "source": "patent US20120289432A1",
  "about": "“PI3K MODULATORS, RHO KINASE MODULATORS AND METHODS OF IDENTIFYING AND USING SAME” (Corning Incorporated, priority 2009, published 2012)",
  "format_in_all_cases": "cell-based, human",
  "key": {"HT-29 cells": {"tested_on": "HT-29 cells", "experiment": "Label-free RWG biosensor DMR assay, agonism mode, HT-29 cells", "settings": "primary profile", "description": "(§1) Cells were typically grown using ˜1 to 2×10^4 cells per well at passage 3 to 15 suspended in 50 μl of the corresponding culture medium in the biosensor microplate, and were cultured at 37° C. under air/5% CO2 for ˜1 day. Except for A431 which underwent one day culture followed by one starvation in serum free medium, all other cells were directly assayed without starvation. The confluency for all cells at the time of assays was ˜95% to 100%.\n(§2) Epic® beta version wavelength interrogation system (Corning Inc., Corning, N.Y.) was used for whole cell sensing. This system consists of a temperature-control unit, an optical detection unit, and an on-board liquid handling unit with robotics. The detection unit is centered on integrated fiber optics, and enables kinetic measures of cellular responses with a time interval of ˜15 sec.\n(§3) For biosensor cellular assays, molecule solutions were made by diluting the stored concentrated solutions with the HBSS (1× Hanks balanced salt solution, plus 20 mM Hepes, pH 7.1), and transferred into a 384 well polypropylene molecule storage plate to prepare a molecule source plate. […] Both the cell assay plate and the molecule and marker source plate(s) were then incubated in the hotel of the reader system. After ˜1 hr of incubation the baseline wavelengths of all biosensors in the cell assay microplate were recorded and normalized to zero. […]"}, "A549 cells [1]": {"tested_on": "A549 cells", "experiment": "Label-free RWG (Epic) biosensor DMR assay, agonism mode, A549 cells", "settings": "primary profile", "description": "as §1, §2\n(§4) For biosensor cellular assays, molecule solutions were made by diluting the stored concentrated solutions with the HBSS (1× Hanks balanced salt solution, plus 20 mM Hepes, pH 7.1), and transferred into a 384 well polypropylene molecule storage plate to prepare a molecule source plate. Both molecule and marker source plates were made separately when a two-step assay was performed. In parallel, the cells were washed twice with the HBSS and maintained in 30 μl of the HBSS to prepare a cell assay plate. Both the cell assay plate and the molecule and marker source plate(s) were then incubated in the hotel of the reader system. After ˜1 hr of incubation the baseline wavelengths of all biosensors in the cell assay microplate were recorded and normalized to zero. Afterwards, a 2 to 10 minute continuous recording was carried out to establish a baseline, and to ensure that the cells reached a steady state. Cellular responses were then triggered by pipetting 10 μl of the marker solutions into the cell assay plate using the on-board liquid handler.\n(§5) All studies were carried out at a controlled temperature (28° C.). At least two independent sets of experiments, each with at least three replicates, were performed."}, "HepG2 cells [2]": {"tested_on": "HepG2 cells", "experiment": "DMR modulation of the ODN2006-induced response in HepG2 cells", "settings": "inhibitor 10 micromolar, ODN2006 500 nM", "description": "as §1\nas §4, with “Cellular responses were then triggered by pipetting 10 μl of the marker solutions into the cell assay plate using the on-board liquid handler.” left out"}, "A549 cells [3]": {"tested_on": "A549 cells", "experiment": "Desensitization of pretreated A549 cells to stimulation with ROCK inhibitor Y-27632", "settings": "pretreatment 10 micromolar ~1 hour, then Y-27632 at EC100 (10 micromolar)", "from_the_text": "FIG. 19 The optical biosensor DMR signals of human lung cancer cell line A549 in response to a well-known Rho kinase inhibitor […] (10 micromolar) in the absence (“buffer”) and presence of two compounds (the Rho kinase inhibitor Y27632, and another Rho kinase inhibitor “compound”). Either of these two inhibitors at 10 micromolar was used to pretreat the A549 cells for ˜1 hr, before the stimulation with Y27632. The desensitization of cells to the second stimulation with Y27632 is an indicator that the compound used for the pretreatment of the cells is a Rho kinase inhibitor.\nFor biosensor cellular assays, molecule solutions were made by diluting the stored concentrated solutions with the HBSS (1× Hanks balanced salt solution, plus 20 mM Hepes, pH 7.1), and transferred into a 384 well polypropylene molecule storage plate to prepare a molecule source plate. Both molecule and marker source plates were made separately when a two-step assay was performed. In parallel, the cells were washed twice with the HBSS and maintained in 30 μl of the HBSS to prepare a cell assay plate. Both the cell assay plate and the molecule and marker source plate(s) were then incubated in the hotel of the reader system. After ˜1 hr of incubation the baseline wavelengths of all biosensors in the cell assay microplate were recorded and normalized to zero. […]"}, "HepG2 cells [4]": {"tested_on": "HepG2 cells", "experiment": "Label-free RWG biosensor DMR assay, agonism mode, HepG2 cells", "settings": "primary profile", "description": "as §1, §2, §3"}, "A549 cells [5]": {"tested_on": "A549 cells", "experiment": "DMR modulation of marker-induced responses (two-step assay) in A549 cells", "settings": "for modulation of the pinacidil response in A549 cells: compound pretreatment ~1 hr (10 micromolar), then pinacidil 10 micromolar", "description": "The index was generated after normalizing each marker-induced DMR signal in the presence of the inhibitor to its corresponding signal in the absence of the inhibitor. The percentage of modulation for each marker by the inhibitor was plotted as a function of the marker. As shown from left to right in a sequential order, the DMR events used for the basis of the modulation percentage calculation are: the N-DMR (50 min after stimulation) for pinacidil in A549, the P-DMR (50 min after stimulation) for forskolin in A549, the early P-DMR event (˜10 min after histamine stimulation) and the late P-DMR event (˜30 min after histamine stimulation) for histamine in A549, and the early P-DMR event (˜5 min after EGF stimulation) and the subsequent N-DMR event (˜30 min after EGF stimulation) for EGF in A431 cells. In all cases, the amplitudes of respective DMR events were used as the basis to calculate the percentages of modulation by the PI3K inhibitors. The same procedure was used to generate FIGS. 8 to 14.\nas §1, §4\nTo study the influence of molecules on a marker-induced response, a second stimulation with the marker at a fixed dose (typically at EC80 or EC100) was applied. The resonant wavelengths of all biosensors in the microplate were normalized again to establish a second baseline, right before the second stimulation. The two stimulations were usually separated by ˜1 hr.\nas §5"}},
  "note": "“Also recorded” adds a separate entry of the source.",
  "data": [
    {"smiles": "C[C@@H](N)[C@H]1CC[C@H](C(=O)Nc2ccncc2)CC1", "note": "[Y-27632]", "values": [
      {"measurement": "DMR (biosensor) signal of the compound in HT-29 cells", "setting": "HT-29 cells", "value": "detectable, and dose-dependent biosensor signals"},
      {"measurement": "DMR (biosensor) signal of the compound in A549 cells", "setting": "A549 cells [1]", "value": "detectable, and dose-dependent biosensor signals; also recorded: characteristic negative DMR signal"},
      {"measurement": "modulation of the ODN2006 DMR signal in HepG2 cells", "setting": "HepG2 cells [2]", "value": "potentiated"},
      {"measurement": "desensitization of A549 cells to second stimulation with Y-27632", "setting": "A549 cells [3]", "value": "significantly caused the cells desensitize"},
      {"measurement": "DMR (biosensor) signal of the compound in HepG2 cells", "setting": "HepG2 cells [4]", "value": "net-zero DMR signal"},
      {"measurement": "modulation of the pinacidil response in A549 cells", "setting": "A549 cells [5]", "value": "complete or significant attenuation; also recorded: attenuated"},
      {"measurement": "modulation of the pinacidil response in A549 cells", "setting": "A549 cells [5]; listed as Y027632", "value": "dose-dependently attenuate"},
      {"measurement": "modulation of the pinacidil response in A549 cells", "setting": "A549 cells [5]; listed as Y27632", "value": "fully attenuated; also recorded: almost completely attenuated"},
      {"measurement": "modulation of the forskolin response (P-DMR) in A549 cells", "setting": "A549 cells [5]; inhibitor 10 micromolar, forskolin 16 micromolar", "value": "potentiated"},
      {"measurement": "modulation of the histamine response (early and late P-DMR) in A549 cells", "setting": "A549 cells [5]; inhibitor 10 micromolar, histamine 10 micromolar", "value": "potentiated"},
      {"measurement": "modulation of the PMA response in A549 cells", "setting": "A549 cells [5]; pretreatment 10 micromolar", "value": "potentiated"},
      {"measurement": "modulation of the SLIGKV response in A549 cells", "setting": "A549 cells [5]; pretreatment 10 micromolar", "value": "potentiated"},
      {"measurement": "modulation of the poly(IC) response in A549 cells", "setting": "A549 cells [5]; pretreatment 10 micromolar", "value": "potentiated"}
    ]}
  ]
}
